Experimental data taken from US20230098438A1, “OXAZINE-BASED WATER-SOLUBLE FLUOROPHORE COMPOUNDS FOR IN VIVO NERVE IMAGING” (Oregon Health & Science University, priority 2020, published 2023).
Entries after “also recorded” stand apart in the source; their conditions may differ.

What was measured:
nerve tissue = conditions: previous studies; fluorescence nerve imaging; cited from earlier work
[1] = Solubility testing in ultrapure water; conditions: kinetic from dmso stock
Description: Each compound was dissolved at high concentration (50 mg/mL) in dimethyl sulfoxide (DMSO) to create a stock solution. Stock solutions were spiked into ultrapure water beginning with a 50 μg/mL concentration and the aqueous solution was vortexed to mix. Resulting solutions were centrifuged at 15,000 rpm for 2 min and examined for a pellet or precipitation signifying insoluble compound.

[2] = NOAEL (no-observed-adverse-effect-level)
[3] = no-observed-adverse-effect-level

| Compound | nerve specificity (nerve tissue) | solubility [1] [µg/mL] | NOAEL ([2]; in vivo) [mg/kg] | NOAEL [2, 3] [mg/kg] |
| --- | --- | --- | --- | --- |
| CCNc1cc2oc3cc(=[N+](CC)CC)ccc-3nc2cc1C [Comparative Example No. 1, 3-(diethyl-λ4-azaneylidene)-N-ethyl-8-methyl-3H-phenoxazin-7-amine, reference compound] | high nerve specificity | 100 | 3 | – |
| CCNc1cc2oc3c/c(=[N+](\CC)CCCS(=O)(=O)[O-])ccc-3nc2cc1C [Example No. 1, (E)-3-(ethyl(7-(ethylamino)-8-methyl-3H-phenoxazin-3-ylidene)ammonio)propane-1-sulfonate] | – | > 5000 | 30 | – |
| CCNc1cc2oc3cc(=[N+](CCOCCOCCOC)CCOCCOCCOC)ccc-3nc2cc1C [Example No. 9, N-(7-(ethylamino)-8-methyl-3H-phenoxazin-3-ylidene)-2-(2-(2-methoxyethoxy)ethoxy)-N-(2-(2-(2-methoxyethoxy)ethoxy)ethyl)ethan-1-aminium] | – | > 5000 | 30 | – |
| CC/N=c1/cc2oc3cc(NCC)c(C)cc3nc-2cc1C [Oxazine 4] | high nerve-specificity; also recorded: high nerve specificity | – | – | – |
| (E)-N-ethyl-N-(7-(ethylamino)-8-methyl-3H-phenoxazin-3-ylidene)-2-(2-(2-methoxyethoxy)ethoxy)ethan-1-aminium [Example No. 7] | – | – | – | 5 |
| (E)-N^1-ethyl-N^1-(7-(ethylamino)-8-methyl-3H-phenoxazin-3-ylidene)-N^3,N^3,N^3-trimethylpropane-1,3-diaminium [Example No. 2] | – | – | – | 2 |
| N-(7-(ethylamino)-8-methyl-3H-phenoxazin-3-ylidene)-2-(2-methoxyethoxy)-N-(2-(2-methoxyethoxy)ethyl)ethan-1-aminium [Example No. 8] | – | – | – | 10 |
| N-(7-(ethylamino)-8-methyl-3H-phenoxazin-3-ylidene)-2-methoxy-N-(2-methoxyethyl)ethan-1-aminium [Example No. 5] | – | – | – | 4 |
